Laboratory results: article PMC3975887, “The structures of cytosolic and plastid-located glutamine synthetases from Medicago truncatula reveal a common and dynamic architecture” (Acta Crystallographica Section D: Biological Crystallography, 2014)
Like-named read-outs stand apart in the source and are kept apart here.

What was measured:
[1] = target: T1, M. truncatula GSII-2b (Medicago truncatula, UniProt E1ANG4); assay: GS synthetase reaction inhibition, GSII-2b; assay type: biochemical
T1 sequence (E1ANG4 50-428): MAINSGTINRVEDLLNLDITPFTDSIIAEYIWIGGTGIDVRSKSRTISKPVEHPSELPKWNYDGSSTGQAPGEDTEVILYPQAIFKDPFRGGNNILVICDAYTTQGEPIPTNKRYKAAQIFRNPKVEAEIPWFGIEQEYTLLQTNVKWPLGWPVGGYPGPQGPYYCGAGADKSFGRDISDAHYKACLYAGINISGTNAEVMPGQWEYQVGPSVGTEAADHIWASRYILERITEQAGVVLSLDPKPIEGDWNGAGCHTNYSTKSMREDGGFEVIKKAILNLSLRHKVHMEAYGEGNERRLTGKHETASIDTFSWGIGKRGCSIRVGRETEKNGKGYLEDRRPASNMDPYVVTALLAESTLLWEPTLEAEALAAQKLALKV
Description: (§1) The activities of the His-tagged GS isoenzymes (GSII-1a, GSII-1b, GSII-2a and GSII-2b) were determined by quantifying the γ-glutamyl hydroxamate produced by the synthetase reaction (GSs) as described previously (Cullimore & Sims, 1981[▶]; Cullimore et al., 1982[▶]). The reactions started by the addition of 10 µg purified His-tagged GS isoenzyme to the assay mixture (100 mM Tris buffer pH 7.8, 100 mM glutamate, 8 mM ATP, 8 mM hydroxylamine, 16 mM MgSO4) were allowed to proceed at 30°C for 15 min and were stopped by adding one volume of stop solution (0.37 M FeCl3, 0.67 M HCl, 0.2 M TCA). GS specific activity was determined as the amount of γ-glutamyl hydroxamate produced per minute per milligram of purified protein (µmol min^−1 mg^−1). GS inhibition was evaluated by adding increasing concentrations of either phosphinothricin (PPT; Fluka; 0, 0.005, 0.01, 0.05, 0.1, 0.5, 1, 1.5, 2.5, 5, 10 and 20 mM) or methionine-S-sulfoximine (MSO; Sigma; 0, 0.5, 1, 1.5, 2.5, 5, 10, 20, 40 and 60 mM) to the reaction mixture. GS inhibition assays were performed at two different glutamate concentrations (20 and 100 mM). IC50 was calculated by nonlinear regression using the LogIC50 equation of GraphPad Prism5 (GraphPad Software).

[2] = target: T2, M. truncatula GSII-1a (Medicago truncatula, UniProt O04998); assay: GS synthetase reaction inhibition, GSII-1a; assay type: biochemical
T2 sequence (O04998 1-356): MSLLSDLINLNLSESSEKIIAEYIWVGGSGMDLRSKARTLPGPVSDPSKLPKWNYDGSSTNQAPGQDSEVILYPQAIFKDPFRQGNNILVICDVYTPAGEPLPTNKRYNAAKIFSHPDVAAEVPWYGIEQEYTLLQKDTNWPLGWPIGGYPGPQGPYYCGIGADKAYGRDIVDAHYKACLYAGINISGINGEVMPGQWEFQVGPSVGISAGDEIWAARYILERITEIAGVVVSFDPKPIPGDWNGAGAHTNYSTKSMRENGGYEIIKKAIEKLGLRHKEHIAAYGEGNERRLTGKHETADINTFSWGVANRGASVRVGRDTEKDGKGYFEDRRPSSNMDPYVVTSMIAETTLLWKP
Description: as §1

[3] = target: T3, M. truncatula GSII-2a (Medicago truncatula, UniProt Q84UC1); assay: GS synthetase reaction inhibition, GSII-2a; assay type: biochemical
T3 sequence (Q84UC1 50-428): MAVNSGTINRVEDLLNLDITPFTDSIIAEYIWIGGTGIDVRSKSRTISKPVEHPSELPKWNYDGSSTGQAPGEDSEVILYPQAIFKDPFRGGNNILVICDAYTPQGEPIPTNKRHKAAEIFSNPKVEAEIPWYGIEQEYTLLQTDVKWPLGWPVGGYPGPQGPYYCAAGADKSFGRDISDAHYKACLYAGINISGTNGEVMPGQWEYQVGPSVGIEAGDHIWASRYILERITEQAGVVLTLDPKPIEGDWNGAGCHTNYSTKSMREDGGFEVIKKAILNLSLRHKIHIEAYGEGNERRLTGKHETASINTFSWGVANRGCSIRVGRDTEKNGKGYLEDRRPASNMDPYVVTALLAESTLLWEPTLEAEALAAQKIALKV
Description: as §1

[4] = target: T4, M. truncatula GSII-1b (Medicago truncatula, UniProt O04999); assay: GS synthetase reaction inhibition, GSII-1b; assay type: biochemical
T4 sequence (O04999 1-356): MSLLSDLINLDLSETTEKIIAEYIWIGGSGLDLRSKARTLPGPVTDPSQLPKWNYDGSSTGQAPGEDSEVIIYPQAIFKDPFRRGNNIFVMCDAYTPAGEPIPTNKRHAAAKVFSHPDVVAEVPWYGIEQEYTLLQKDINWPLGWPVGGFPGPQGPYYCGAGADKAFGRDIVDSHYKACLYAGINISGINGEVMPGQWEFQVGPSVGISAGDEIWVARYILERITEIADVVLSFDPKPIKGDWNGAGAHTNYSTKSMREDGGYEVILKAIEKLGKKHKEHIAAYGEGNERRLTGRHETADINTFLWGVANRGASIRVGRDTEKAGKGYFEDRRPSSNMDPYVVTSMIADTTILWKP
Description: as §1

[5] = system: plant GSII; design: method as in Evstigneeva et al., 2003; conditions: plant GSII overall; ref Evstigneeva et al., 2003; cited from earlier work
[6] = target: Medicago truncatula plastid-located glutamine synthetase GSII-2a (mature polypeptide) (Medicago truncatula); assay: native MS; nondenaturing conditions, ammonium acetate buffer pH 7.5, nano-electrospray, capillary voltage 1700 V, cone potential 50 V
[7] = target: Medicago truncatula plastid-located glutamine synthetase GSII-2a (mature polypeptide) (Medicago truncatula); assay: native MS; high activation conditions: collision energy increased from 100 to 200 V; ammonium acetate buffer pH 7.5; decamer to pentamers in the gas phase
[8] = target: Medicago truncatula plastid-located glutamine synthetase GSII-2a (mature polypeptide) (Medicago truncatula); assay: cryo-EM structure; purified GSII-2a 0.3 mg/ml vitrified; single-particle reconstruction with D5 symmetry applied, 3117 side-view particles with parallel rings, 20 Å
[9] = target: Medicago truncatula plastid-located glutamine synthetase GSII-2a (mature polypeptide) (Medicago truncatula); assay: native MS; high activation conditions: collision energy increased from 100 to 200 V; ammonium acetate buffer pH 7.5; decamer to pentamers in the gas phase; remark: listed apart in the source
[10] = target: the molecule itself; assay: crystal structure; apo form, space group P2_(1), decamer in the asymmetric unit, 2.35 Å
[11] = standard GS assay conditions (100 mM glutamate)
[12] = MSO titration using 20 mM glutamate, His-tagged enzyme, read-out: IC50 (concentration of inhibitor reducing the GS activity by 50%)

CS(=N)(=O)CC[C@H](N)C(=O)O (some centres unmarked) [MSO, methionine-S-sulfoximine]
GS inhibition under the standard GS assay conditions [1, 11]: poorly inhibited
IC50 [2, 12]: 9.5 mM
GS inhibition under the standard GS assay conditions [2, 11]: poorly inhibited
IC50 [3, 12]: 3.6 mM
GS inhibition under the standard GS assay conditions [3, 11]: poorly inhibited
IC50 [4, 12]: 2.2 mM
GS inhibition under the standard GS assay conditions [4, 11]: poorly inhibited

CP(=O)(O)CC[C@H](N)C(=O)O [PPT, phosphinothricin]
IC50 [1]: 720 µM
times more effectively inhibited by PPT than by MSO [5]: 5–10 times
IC50 [2]: 0.76 mM
IC50 [3]: 0.26 mM
IC50 [4]: 0.67 mM

Medicago truncatula plastid-located glutamine synthetase GSII-2a (mature polypeptide) (enzyme)
stoichiometry N [6]: 10
stoichiometry N [7]: 5
stoichiometry N [8]: 10
stoichiometry N [9]: 10

B1: Medicago truncatula cytosolic glutamine synthetase GSII-1a (enzyme, UniProt O04998 1-356, looked up)
chain: MSLLSDLINLNLSESSEKIIAEYIWVGGSGMDLRSKARTLPGPVSDPSKLPKWNYDGSSTNQAPGQDSEVILYPQAIFKDPFRQGNNILVICDVYTPAGEPLPTNKRYNAAKIFSHPDVAAEVPWYGIEQEYTLLQKDTNWPLGWPIGGYPGPQGPYYCGIGADKAYGRDIVDAHYKACLYAGINISGINGEVMPGQWEFQVGPSVGISAGDEIWAARYILERITEIAGVVVSFDPKPIPGDWNGAGAHTNYSTKSMRENGGYEIIKKAIEKLGLRHKEHIAAYGEGNERRLTGKHETADINTFSWGVANRGASVRVGRDTEKDGKGYFEDRRPSSNMDPYVVTSMIAETTLLWKP
notes: Glutamine synthetase GSII-1a, cytosolic, Medicago truncatula, UniProt O04998; Apo form; also called MtGSII-1a; MtGSII1a; source: recombinant, N-terminally His-tagged; cloning and crystallisation described previously (Seabra et al., 2009); not shown: His tag, N-terminal, kept; copies: 10
stoichiometry N [10]: 10
